Columns and labels:
[1] = system: plasmid DNA (pKaede-MN1 plasmid with R18 insert); assay: Light-induced plasmid DNA cleavage, agarose gel electrophoresis; format: biochemical
Method: Reactions containing plasmid DNA and either buffer, alizarin red s, TiO2 nanoparticles, or alizarin red s-coated TiO2 nanoparticles were incubated at 37° C. for 10 minutes and either kept in the dark or illuminated with a 75 watt halogen bulb for 5-10 minutes (FIG. 36). Samples were then run via electrophoresis at 50 volts for 4 hours on a 1.25% agarose gel and scanned on a Typhoon Trio multi-mode imager to visualize the different resulting configurations of plasmid DNA (FIG. 36). […] To confirm the identities of plasmid configurations resulting from excitation of alizarin red s-coated TiO2 nanoparticles, supercoiled, nicked, and linearized plasmid DNA bands were excised and purified from the agarose gel.
The role of the latter was investigated by expanding upon previous experiments and using TiO2 nanoparticles that were coated with glycidyl isopropyl ether (GIE), which reduces interaction between the nanoparticle surface and its surrounding environment (Paunesku et al Nat. Mater. 2003, 2, 343-346; Rajh et al Nano Lett. 2004, 4, 1017-1023). Plasmid samples containing either GIE, GIE and alizarin red s, or GIE-alizarin red s-coated TiO2 nanoparticles were illuminated for 5 minutes with 150W halogen bulb (FIG. 39).
The effect of conjugating different peptide nucleic acid sequences to GIE-alizarin-coated TiO2 nanoparticles on DNA cleavage was investigated (FIG. 40A).

[2] = system: MCF-7 cells; assay: Intracellular localization by confocal fluorescent microscopy; conditions: 1 hour treatment
[3] = in vitro; conditions: rat
[4] = system: MCF-7/WS8 breast cancer cells; assay: MRI T1 and signal intensity of MCF-7 cells transfected with SuperFect reagent, in agarose phantoms; format: cell-based, human; conditions: for T1 value, Equation method / T1 value, Null point method / Signal intensity: SuperFect; for T1 value, Equation method / T1 value, Null point method: 48 hours after treatment, 1.5 T; for Signal intensity: T1-weighted
Method: For transfection experiments MCF-7/W8/WS8 breast cancer cells (American Type Culture Collection, ATCC, Manassas, Va.) and PC3-M prostate cancer cells (ATCC) were grown in a 5% CO2 humidified atmosphere in RPMI1640 cell culture medium (this and all other standard cell culture supplements were from Invitrogen/Gibco, Carlsbad, Calif.) supplemented with 10% fetal bovine serum and antibiotic-antimycotic. MCF-7/WS8 medium also contained insulin at a concentration of 10 μg/mL (Sigma, St. Louis, Mo.), 200 mM 1-glutamine, and 10 mM nonessential amino acids; PC3-M medium also contained 25 μg/mL G418 and 2.4 mg/mL HEPES. Nearly confluent cells were serum-starved for 16 to 20 hours before transfection or treatment.
For SuperFect transfection, 60 μL of SuperFect reagent (Qiagen, Valencia, Calif.) and 300 μL of any one of the following: (1) Gd contrast agent, (2) TiO2 nanoparticles, or (3) TiO2-DNA-Gd nanoconjugates were used; these mixtures were applied onto 16 million cells each. Final concentrations of these agents in the medium were (1) 144 μM Gd; (2) 0.12 μM TiO2 nanoparticles, or (3) TiO2-DNA-Gd nanoconjugates wherein TiO2 nanoparticles were 0.12 μM and Gd was 75.6 μM in concentration. Media were exchanged for fresh complete cell media 24 hours later and, after an additional 24-hour incubation, cells were harvested for imaging.
In all cases, cells harvested for MRI were embedded in 300 μL agarose phantoms. Once the MRI was completed, these phantoms were used for ICP-MS and/or preparation of paraffin-embedded samples for sectioning and imaging by x-ray fluorescence microscopy.
To prepare samples for MRI, 150 μL of Hank's balanced buffered salt solution (HBBS; Invitrogen/Gibco) containing cells were mixed with 2% agarose melted in 150 μL of HBBS. Cells in agarose solidified as a plug and were transferred into tubes, placed in a water bath, and imaged using a 1.5 T Siemens Sonata system (Erlangen, Germany) with a four-channel head coil for signal reception and body coil for excitation. T 1 of each sample was measured using an inversion recovery sequence with repetition time (TR)=4000 ms and inversion times of 50, 200, 500, 800, 1000, 1200, 1500, and 2000 ms. Other scan parameters were: field of view=125×200 mm^2; acquisition matrix=115×192; readout bandwidth=965 Hz/pixel; slice thickness=5 mm; all images were acquired in the coronal orientation.
For data analysis the raw data of signal intensity versus TI were fit to the equation: Signal intensity=abs(A*(1−2*exp(−R1*TI))+C, where R1=1/T1. Variables A and C are free parameters of the model. The confidence interval was determined statistically; R2 indicates goodness of fit. The TI corresponding to the lowest signal intensity (TInull) is an indication of the T1 value; this relationship can be estimated by the equation: T1=TInull/ln(2). T1 values determined using the results of the equation fit and the null point relationship are listed in Table 2. Signal intensity, a quantitative metric of relative brightness, was measured with a circular region-of-interest within each sample.

[5] = system: MCF-7 cells; assay: Intracellular Gd by ICP-MS of agarose phantoms with embedded cells; format: cell-based, human; conditions: 48 hours after transfection
Method: Sections of agarose phantoms with embedded cells were analyzed by ICP-MS.

[6] = system: PC-3M cells; conditions: human, 24 h, 20 mM
Method: All cell culture reagents were purchased from Mediatech Inc. unless otherwise specified. […] Both cell lines were maintained at 37° C. with 5% CO2 in RPMI 1640 media supplemented with fetal bovine serum (10%), L-glutamine (2 mM), HEPES (10 mM), penicillin (100 I.U./ml), streptomycin (100 μg/ml). […] PC-3M cells were further supplemented with G418 sulfate (0.15 mg/ml). For treatment, cells were washed with phosphate buffered saline solution (PBS) and placed in serum free RPMI 1640 for 1-2 hours. Then cells were treated with TiO2 nanoparticles (333 nM) coated with or without ARS (60 μM), and/or ODN (160 μM) for one hour. […]
After treatment and washing, cells were trypsinized, collected in FBS supplemented medium, and brought to a single cell suspension. […] Samples were then taken to the Northwestern University Flow Cytometry Core Facility of the Robert H. Lurie Cancer Center to be analyzed or sorted on the DakoCytomation MoFlo Flow Cytometer (Dako). […]
Labeling the nanoparticles, however, allowed one to screen the treated cells simultaneously for nanoparticle uptake (by ARS fluorescence) and for viability (by use of fluorescent cell-impermeable dye). […] Flow cytometry was then used to quantify both the extent of nanoparticle uptake within the cell population, and the cells' ability to exclude cell-impermeable DAPI as an indicator of cell viability.

Compound: CC(C)OCC1CO1 (centres unmarked) [GIE, glycidyl isopropyl ether]
- plasmid DNA cleavage upon light exposure ([1]; 150W halogen bulb, 5 minutes, three replicate experiments): not cleaved

Compound: COc1cccc2c1C(=O)c1c(O)c3c(c(O)c1C2=O)C[C@@](O)(C(=O)CO)C[C@@H]3O[C@H]1C[C@H](N)[C@H](O)[C@H](C)O1 [free doxorubicin, Doxorubicin]
- subcellular localization [2]: predominantly located in the cell nucleus
- viability at 4 days, 1.72 μM [3]: 79.6%

Compound: PGA-1,6-hexanediamine-(Gd-DOTA)-dopamine conjugate
- T1 value, Equation method ([4]; 5 × 10^5 cells): 1799
- T1 value, Null point method ([4]; 5 × 10^5 cells): 1436
- Signal intensity ([4]; 5 × 10^5 cells, inversion time 1000 ms): 33
- T1 value, Equation method ([4]; 5 × 10^6 cells): 1625
- T1 value, Null point method ([4]; 5 × 10^6 cells): 1235
- Signal intensity ([4]; 5 × 10^6 cells, inversion time 1000 ms): 71
- T1-weighted signal enhancement of treated cells ([4]; T1-weighted images, inversion time 1000 ms, 24 or 48 hours after treatment): no T1-weighted enhancement
- intracellular concentration of Gd (average) ([5]; 5×10^6 cells, ICP-MS): 0.75 µM
- Gd retention relative to Gd in cell media [5]: 0.5%

Compound: O=C1c2ccccc2C(=O)c2c1cc(S(=O)(=O)O)c(O)c2O [ARS, 1,2 dihydroxyanthraquinone-3-sulfonate]
- plasmid DNA cleavage upon light exposure ([1]; 75 watt halogen bulb, 5-10 minutes): increase in the presence of nicked plasmid

Compound: OO [H2O2, hydrogen peroxide]
- reduction in viability [6]: approximately 54%

Reference: patent US8557290B2, “Multifunction nanoconjugates for imaging applications and targeted treatment” (priority 2008, dated 2013)
